# Experimental data reported in US20220062240A1, “METHODS OF TREATING CANCER USING A CLK INHIBITOR” (BioSplice Therapeutics, Inc., priority 2018, published 2022).
# Where two headings read alike, the source gives them in different places.
# How the values were obtained:
# [1] = test system: pancreatic cancer (8 cell lines); test: CellTiter-Glo Viability Assay, pancreatic cancer; type: cell-based; settings: Homo sapiens
# [2] = test system: colorectal cancer (6 cell lines); test: CellTiter-Glo Viability Assay, colorectal cancer; type: cell-based; settings: Homo sapiens
# [3] = test system: prostate cancer (5 cell lines); test: CellTiter-Glo Viability Assay, prostate cancer; type: cell-based; settings: Homo sapiens
# CLK3 = CLK3 (Homo sapiens, UniProt P49761); test: CLK3 kinase activity assay (Z-lyte, Ser/Thr 18 peptide)
# [4] = test system: liver cancer (3 cell lines); test: CellTiter-Glo Viability Assay, liver cancer; type: cell-based; settings: Homo sapiens
# [5] = test system: ovarian cancer (4 cell lines); test: CellTiter-Glo Viability Assay, ovarian cancer; type: cell-based; settings: Homo sapiens
# [6] = test system: lung cancer (4 cell lines); test: CellTiter-Glo Viability Assay, lung cancer; type: cell-based; settings: Homo sapiens
# CLK2 = biological target: T1, CLK2 (Homo sapiens, UniProt P49760); test: CLK2 kinase activity assay (Z-lyte, Ser/Thr 6 peptide); type: biochemical
# T1 construct: purchased Thermo Fisher (Life Technologies), Z'-LYTE Kinase Assay Kits
# Experimental: All reactions were performed in duplicate.
# all 50 cell lines = test: CellTiter-Glo Viability Assay, average across all cell lines; type: cell-based; settings: Homo sapiens, read-out: average EC50 for inhibition of cancer cell proliferation
# Outline: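 Human cancer cell lines from breast, colorectal, haematopoietic/lymphoid, liver, lung, ovarian, pancreatic and prostate tumours were seeded at 300-3,000 cells/well and exposed to compound in duplicate for four days at 37° C, 5% CO2. Viable cells were measured by ATP luminescence; EC50 values came from dose-response curves.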
# [7] = test system: haematopoietic & lymphoid tumors (13 cell lines); test: CellTiter-Glo Viability Assay, haematopoietic & lymphoid tumors; type: cell-based; settings: Homo sapiens
# MDA-MB-231-Luc = test: CellTiter-Glo Viability Assay, breast cancer; type: cell-based; settings: Homo sapiens, 96 h
# DU4475 = test: CellTiter-Glo Viability Assay, breast cancer; type: cell-based; settings: Homo sapiens, DU-4475, 96 h
# CAMA1 = test: CellTiter-Glo Viability Assay, breast cancer; type: cell-based; settings: Homo sapiens, CAMA-1, 96 h
# MCF7 = test: CellTiter-Glo Viability Assay, breast cancer; type: cell-based; settings: Homo sapiens, MCF7, 96 h
# HCC1599 = test: CellTiter-Glo Viability Assay, breast cancer; type: cell-based; settings: Homo sapiens, HCC1599, 96 h
# BT-549 = test: CellTiter-Glo Viability Assay, breast cancer; type: cell-based; settings: Homo sapiens, BT-549, 96 h
# ZR-75-1 = test: CellTiter-Glo Viability Assay, breast cancer; type: cell-based; settings: Homo sapiens, ZR-75-1, 96 h
# T47D = test: CellTiter-Glo Viability Assay, breast cancer; type: cell-based; settings: Homo sapiens, 96 h
# T1 sequence (P49760 whole entry): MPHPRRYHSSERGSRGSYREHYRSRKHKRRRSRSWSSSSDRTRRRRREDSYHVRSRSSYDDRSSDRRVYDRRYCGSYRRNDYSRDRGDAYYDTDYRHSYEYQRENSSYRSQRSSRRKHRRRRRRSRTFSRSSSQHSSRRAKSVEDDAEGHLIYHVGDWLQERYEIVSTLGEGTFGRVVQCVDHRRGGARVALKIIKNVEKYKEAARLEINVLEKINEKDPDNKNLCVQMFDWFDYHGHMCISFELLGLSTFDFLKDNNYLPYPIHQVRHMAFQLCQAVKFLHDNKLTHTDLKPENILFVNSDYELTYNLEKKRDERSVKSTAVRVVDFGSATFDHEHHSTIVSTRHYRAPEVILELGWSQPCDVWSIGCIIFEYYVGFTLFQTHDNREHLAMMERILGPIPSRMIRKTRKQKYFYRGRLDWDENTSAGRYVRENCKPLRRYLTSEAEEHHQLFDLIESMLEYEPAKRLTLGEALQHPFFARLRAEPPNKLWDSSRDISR
# CLK3, sequence (P49761 whole entry): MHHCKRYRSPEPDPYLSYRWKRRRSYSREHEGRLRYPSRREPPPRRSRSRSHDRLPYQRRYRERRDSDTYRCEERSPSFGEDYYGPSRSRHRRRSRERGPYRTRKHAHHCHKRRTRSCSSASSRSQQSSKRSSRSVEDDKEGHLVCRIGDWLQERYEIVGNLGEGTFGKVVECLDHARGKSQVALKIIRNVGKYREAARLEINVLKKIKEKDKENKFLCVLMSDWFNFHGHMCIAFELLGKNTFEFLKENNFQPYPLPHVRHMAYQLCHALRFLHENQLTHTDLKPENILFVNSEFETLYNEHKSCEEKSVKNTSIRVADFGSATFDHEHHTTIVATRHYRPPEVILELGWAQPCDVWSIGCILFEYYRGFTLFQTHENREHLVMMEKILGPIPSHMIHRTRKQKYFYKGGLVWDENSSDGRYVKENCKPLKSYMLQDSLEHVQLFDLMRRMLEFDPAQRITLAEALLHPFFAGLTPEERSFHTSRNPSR
structure (smiles),measurement,setting,value
CN1CCC(N(C)c2cc(C(=O)Nc3cc4cc(-c5cnn(C)c5)ccc4cn3)ccn2)CC1 [Compound 72],EC50,"[1]; BXPC-3, read-out: Pancreatic cancer, EC50 BxPC3",310 nM
same,EC50,"[1]; CAPAN-1, read-out: Pancreatic cancer, EC50 Capan1",215 nM
same,EC50,"[1]; Capan-2, read-out: Pancreatic cancer, EC50 Capan2",409 nM
same,EC50,"[1]; MIA PaCa-2, read-out: Pancreatic cancer, EC50 MIA PaCa-2",88 nM
same,EC50,"[1]; PANC-1, read-out: Pancreatic cancer, EC50 PANC-1",276 nM
same,EC50,"[1]; Panc 05.04, read-out: Pancreatic cancer, EC50 PANC 05.04",226 nM
same,EC50,"[1]; read-out: Pancreatic cancer, EC50 UPAFII",125 nM
same,EC50,"[2]; DLD-1, read-out: Colorectal cancer, EC50 (μM) DLD-1",0.157 µM
same,EC50,"[2]; HCT-116, read-out: Colorectal cancer, EC50 (μM) HCT116",0.103 µM
same,EC50,"[2]; HT-29, read-out: Colorectal cancer, EC50 (μM) HT29",0.257 µM
same,EC50,"[2]; SW48, read-out: Colorectal cancer, EC50 (μM) SW48",0.057 µM
same,EC50,"[2]; SW480, read-out: Colorectal cancer, EC50 (μM) SW480",0.129 µM
same,EC50,"[2]; SW-620, read-out: Colorectal cancer, EC50 (μM) SW620",0.072 µM
same,EC50,"[3]; 22Rv1, read-out: Prostate cancer EC50 22Rv1",142 nM
same,EC50,"[3]; DU-145, read-out: Prostate cancer EC50 Du-145",232 nM
same,EC50,"[3]; LNCaP-Clone-FGC, read-out: Prostate cancer EC50 LNCap clone FGC",257 nM
same,EC50,"[3]; PC-3, read-out: Prostate cancer EC50 PC3",174 nM
same,EC50,"[3]; VCaP, read-out: Prostate cancer EC50 VCaP (Sigma)",509 nM
same,EC50,CLK3,19.9 nM
same,EC50,"[4]; HepG2, read-out: Liver cancer, EC50 HEPG2",136 nM
same,EC50,"[4]; PLC-PRF-5, read-out: Liver cancer, EC50 PLC/PRF/5",386 nM
same,EC50,"[4]; SNU-398, read-out: Liver cancer, EC50 SNU398",51 nM
same,EC50,"[5]; OV-90, read-out: Ovarian cancer, EC50 (μM) OV-90",0.317 µM
same,EC50,"[5]; OVCAR-3, read-out: Ovarian cancer, EC50 (μM) OVCAR-3",0.095 µM
same,EC50,"[5]; PA-1, read-out: Ovarian cancer, EC50 (μM) PA1",0.154 µM
same,EC50,"[5]; TOV112D, read-out: Ovarian cancer, EC50 (μM) TOV-112D",0.106 µM
same,EC50,"[6]; A-427, read-out: Lung cancer, EC50 (μM) A427",0.136 µM
same,EC50,"[6]; HCC78, read-out: Lung cancer, EC50 (μM) HCC-78",0.211 µM
same,EC50,"[6]; NCI-H460, read-out: Lung cancer, EC50 (μM) NCI-H460",0.207 µM
same,EC50,"[6]; NCI-H522, read-out: Lung cancer, EC50 (μM) NCI-H522",0.119 µM
same,EC50,CLK2,1.3 nM
same,EC50,all 50 cell lines,206 nM
same,EC50,"[7]; DND41, read-out: Haematopoietic & Lymphoid tumors, EC50 (μM) DND-41",0.167 µM
same,EC50,"[7]; HL-60, read-out: Haematopoietic & Lymphoid tumors, EC50 (μM) HL-60",0.453 µM
same,EC50,"[7]; JM1, read-out: Haematopoietic & Lymphoid tumors, EC50 (μM) JM1",0.047 µM
same,EC50,"[7]; JeKo-1, read-out: Haematopoietic & Lymphoid tumors, EC50 (μM) JeKo-1",0.054 µM
same,EC50,"[7]; Jurkat, read-out: Haematopoietic & Lymphoid tumors, EC50 (μM) JURKAT, Clone E6-1",0.337 µM
same,EC50,"[7]; Kasumi 1, read-out: Haematopoietic & Lymphoid tumors, EC50 (μM) KASUMI-1",0.13 µM
same,EC50,"[7]; MOLT-4, read-out: Haematopoietic & Lymphoid tumors, EC50 (μM) MOLT-4",0.189 µM
same,EC50,"[7]; MV4-11, read-out: Haematopoietic & Lymphoid tumors, EC50 (μM) MV-4-11",0.049 µM
same,EC50,"[7]; Rec1, read-out: Haematopoietic & Lymphoid tumors, EC50 (μM) REC-1",0.049 µM
same,EC50,"[7]; SU-DHL-4, read-out: Haematopoietic & Lymphoid tumors, EC50 (μM) SUDHL4",0.229 µM
same,EC50,"[7]; TF-1, read-out: Haematopoietic & Lymphoid tumors, EC50 (μM) TF-1",0.314 µM
same,EC50,"[7]; Toledo, read-out: Haematopoietic & Lymphoid tumors, EC50 (μM) TOLEDO",0.057 µM
same,EC50,"[7]; read-out: Haematopoietic & Lymphoid tumors, EC50 (μM) Loucy",0.139 µM
same,EC50,MDA-MB-231-Luc,230 nM
same,EC50,DU4475,121 nM
same,EC50,CAMA1,294 nM
same,EC50,MCF7,670 nM
same,EC50,HCC1599,147 nM
same,EC50,BT-549,186 nM
same,EC50,ZR-75-1,284 nM
same,EC50,T47D,506 nM
